Source: ChEMBL document CHEMBL4308841, “Synthesis, in vitro antiproliferative activity, and kinase inhibitory effects of pyrazole-containing diarylureas and diarylamides” (Eur J Med Chem, 2018)

Tests used:
HOP-62 [1] = experiment: Growth inhibition of human HOP62 cells assessed as cell growth at 0.1 uM incubated for 48 hrs by sulforhodamine B assay relative to control; assay type: functional; details: HOP-62, 48 h, read-out: Activity
OVCAR-5 = experiment: Growth inhibition of human OVCAR5 cells assessed as cell growth at 1 uM incubated for 48 hrs by sulforhodamine B assay relative to control; assay type: functional; details: OVCAR-5, 48 h, read-out: Activity
SK-MEL-5 = experiment: Growth inhibition of human SK-MEL-5 cells assessed as cell growth at 1 uM incubated for 48 hrs by sulforhodamine B assay relative to control; assay type: functional; details: SK-MEL-5, 48 h, read-out: Activity
HCC 2998 [2] = experiment: Growth inhibition of human HCC2998 cells assessed as cell growth at 1 uM incubated for 48 hrs by sulforhodamine B assay relative to control; assay type: functional; details: HCC 2998, 48 h, read-out: Activity
HCC 2998 [3] = experiment: Growth inhibition of human HCC2998 cells incubated for 48 hrs by sulforhodamine B assay; assay type: functional, cell-based; details: HCC 2998, 48 h
HCC 2998 [4] = experiment: Growth inhibition of human HCC2998 cells assessed as cell growth at 0.1 uM incubated for 48 hrs by sulforhodamine B assay relative to control; assay type: functional; details: HCC 2998, 48 h, read-out: Activity
MCF7 = experiment: Growth inhibition of human MCF7 cells assessed as cell growth at 0.1 uM incubated for 48 hrs by sulforhodamine B assay relative to control; assay type: functional; details: MCF7, 48 h, read-out: Activity
DU-145 = experiment: Growth inhibition of human DU145 cells assessed as cell growth at 100 uM incubated for 48 hrs by sulforhodamine B assay relative to control; assay type: functional; details: DU-145, 48 h, read-out: Activity
BT-549 = experiment: Growth inhibition of human BT549 cells assessed as cell growth at 0.01 uM incubated for 48 hrs by sulforhodamine B assay relative to control; assay type: functional; details: BT-549, 48 h, read-out: Activity
RXF 393 = experiment: Growth inhibition of human RXF393 cells assessed as cell growth at 1 uM incubated for 48 hrs by sulforhodamine B assay relative to control; assay type: functional; details: RXF 393, 48 h, read-out: Activity
SK-OV-3 = experiment: Growth inhibition of human SKOV3 cells assessed as cell growth at 1 uM incubated for 48 hrs by sulforhodamine B assay relative to control; assay type: functional; details: SK-OV-3, 48 h, read-out: Activity
TK-10 = experiment: Growth inhibition of human TK10 cells assessed as cell growth at 10 uM incubated for 48 hrs by sulforhodamine B assay relative to control; assay type: functional; details: TK-10, 48 h, read-out: Activity
M14 = experiment: Growth inhibition of human M14 cells assessed as cell growth at 1 uM incubated for 48 hrs by sulforhodamine B assay relative to control; assay type: functional; details: M14, 48 h, read-out: Activity
CAKI-1 = experiment: Growth inhibition of human Caki1 cells incubated for 48 hrs by sulforhodamine B assay; assay type: functional, cell-based; details: CAKI-1, 48 h
NCI/ADR-RES = experiment: Growth inhibition of human NCI/ADR-RES cells assessed as cell growth at 1 uM incubated for 48 hrs by sulforhodamine B assay relative to control; assay type: functional; details: read-out: Activity
SF-268 = experiment: Growth inhibition of human SF268 cells incubated for 48 hrs by sulforhodamine B assay; assay type: functional, cell-based; details: SF-268, 48 h
HT-29 = experiment: Growth inhibition of human HT-29 cells assessed as cell growth at 10 uM incubated for 48 hrs by sulforhodamine B assay relative to control; assay type: functional; details: HT-29, 48 h, read-out: Activity
COLO 205 [5] = experiment: Growth inhibition of human COLO205 cells assessed as cell growth at 100 uM incubated for 48 hrs by sulforhodamine B assay relative to control; assay type: functional; details: COLO 205, 48 h, read-out: Activity
NCI-H226 = experiment: Growth inhibition of human NCI-H226 cells assessed as cell growth at 100 uM incubated for 48 hrs by sulforhodamine B assay relative to control; assay type: functional; details: NCI-H226, 48 h, read-out: Activity
OVCAR-8 = experiment: Growth inhibition of human OVCAR8 cells assessed as cell growth at 0.1 uM incubated for 48 hrs by sulforhodamine B assay relative to control; assay type: functional; details: OVCAR-8, 48 h, read-out: Activity
KM12 = experiment: Growth inhibition of human KM12 cells assessed as cell growth at 1 uM incubated for 48 hrs by sulforhodamine B assay relative to control; assay type: functional; details: KM12, 48 h, read-out: Activity
UACC-257 = experiment: Growth inhibition of human UACC257 cells assessed as cell growth at 0.01 uM incubated for 48 hrs by sulforhodamine B assay relative to control; assay type: functional; details: UACC-257, 48 h, read-out: Activity
SN12C = experiment: Growth inhibition of human SN12C cells assessed as cell growth at 100 uM incubated for 48 hrs by sulforhodamine B assay relative to control; assay type: functional; details: read-out: Activity
COLO 205 [6] = experiment: Growth inhibition of human COLO205 cells assessed as cell growth at 0.1 uM incubated for 48 hrs by sulforhodamine B assay relative to control; assay type: functional; details: COLO 205, 48 h, read-out: Activity
COLO 205 [7] = experiment: Growth inhibition of human COLO205 cells assessed as cell growth at 1 uM incubated for 48 hrs by sulforhodamine B assay relative to control; assay type: functional; details: COLO 205, 48 h, read-out: Activity
HOP-62 [8] = experiment: Growth inhibition of human HOP62 cells assessed as cell growth at 1 uM incubated for 48 hrs by sulforhodamine B assay relative to control; assay type: functional; details: HOP-62, 48 h, read-out: Activity
A498 = experiment: Growth inhibition of human A498 cells assessed as cell growth at 0.1 uM incubated for 48 hrs by sulforhodamine B assay relative to control; assay type: functional; details: A498, 48 h, read-out: Activity
A549 = experiment: Growth inhibition of human A549/ATCC cells assessed as cell growth at 0.1 uM incubated for 48 hrs by sulforhodamine B assay relative to control; assay type: functional; details: A549, 48 h, read-out: Activity
UO-31 = experiment: Growth inhibition of human UO31 cells assessed as cell growth at 0.01 uM incubated for 48 hrs by sulforhodamine B assay relative to control; assay type: functional; details: UO-31, 48 h, read-out: Activity
CCRF-CEM = experiment: Growth inhibition of human CCRF-CEM cells assessed as cell growth at 0.01 uM incubated for 48 hrs by sulforhodamine B assay relative to control; assay type: functional; details: read-out: Activity
[9] = read-out: LC50 (the source's name)
[10] = read-out: pLC50 (the source's name) (converted)

Compound: O=C(Nc1cccc(-n2cc(-c3ccncc3)c(-c3cc(O)cc(Cl)c3)n2)c1)c1cc(C(F)(F)F)cc(C(F)(F)F)c1
- growth at 0.1 µM (HOP-62 [1]): 100%
- growth at 1 µM (OVCAR-5): 99%
- growth at 1 µM (SK-MEL-5): 90%
- growth at 1 µM (HCC 2998 [2]): 96%
- GI50 (HCC 2998 [3]; read-out: GI50): 3.12 µM
- CC50 (HCC 2998 [3]; [9]): > 100 µM
- TGI (HCC 2998 [3]; read-out: TGI): 11.6 µM
- GI50 (HCC 2998 [3]; read-out: pGI50 (converted)): 3.09 µM
- CC50 (HCC 2998 [3]; [10]): > 100 µM
- TGI (HCC 2998 [3]; read-out: pTGI (converted)): 11.7 µM
- growth at 0.1 µM (HCC 2998 [4]): 95%
- growth at 0.1 µM (MCF7): 92%
- growth at 100 µM (DU-145): 23%
- growth at 0.01 µM (BT-549): 95%
- growth at 1 µM (RXF 393): 78%
- growth at 1 µM (SK-OV-3): 100%
- growth at 10 µM (TK-10): 73%
- growth at 1 µM (M14): 85%
- GI50 (CAKI-1; read-out: GI50): 3.57 µM
- CC50 (CAKI-1; [9]): > 100 µM
- TGI (CAKI-1; read-out: TGI): > 100 µM
- GI50 (CAKI-1; read-out: pGI50 (converted)): 3.63 µM
- CC50 (CAKI-1; [10]): > 100 µM
- TGI (CAKI-1; read-out: pTGI (converted)): > 100 µM
- growth at 1 µM (NCI/ADR-RES): 94%
- GI50 (SF-268; read-out: GI50): 6.38 µM
- CC50 (SF-268; [9]): > 100 µM
- TGI (SF-268; read-out: TGI): > 100 µM
- GI50 (SF-268; read-out: pGI50 (converted)): 6.46 µM
- CC50 (SF-268; [10]): > 100 µM
- TGI (SF-268; read-out: pTGI (converted)): > 100 µM
- growth at 10 µM (HT-29): 19.7%
- growth at 100 µM (COLO 205 [5]): -7%
- growth at 100 µM (NCI-H226): 19%
- growth at 0.1 µM (OVCAR-8): 100%
- growth at 1 µM (KM12): 79%
- growth at 0.01 µM (UACC-257): 92%
- growth at 100 µM (SN12C): 17%
- growth at 0.1 µM (COLO 205 [6]): 102%
- growth at 1 µM (COLO 205 [7]): 97%
- growth at 1 µM (HOP-62 [8]): 100%
- growth at 0.1 µM (A498): 87%
- growth at 0.1 µM (A549): 95%
- growth at 0.01 µM (UO-31): 57%
- growth at 0.01 µM (CCRF-CEM): 96%

Compound: COc1cc(Cl)cc(-c2nn(-c3cccc(NC(=O)c4ccc(Cl)c(Cl)c4)c3)cc2-c2ccncc2)c1
- growth at 10 µM (TK-10): 104%
- growth at 10 µM (HT-29): 56.4%
